Test system: normal hematopoietic stem cells/progenitor cells
Conditions: mouse, in vivo
Description: 7. Reprogramming factors have less effect on normal hematopoietic stem cells/progenitor cells: bone marrow cells and leukemic cells of OSKM mice were co-transplanted into lethally irradiated mice. After leukemia developed in the mice, Dox was added into the drinking water of the mice in experimental group for 7 days. […] It can be seen from FIG. 5A that the ratios of normal hematopoietic stem cells and progenitor cells in the mouse bone marrows were not affected after Dox treatment. […] It can be seen from FIG. 5B that the apoptosis of normal hematopoietic stem cells and progenitor cells was not affected after Dox treatment. […] It can be seen from FIGS. 5A, 5B, and 5C that the number and apoptosis of normal hematopoietic stem cells/progenitor cells were not affected and the mice in the experimental group were recovered from leukemia.

SMILES: C[C@H]1c2cccc(O)c2C(=O)C2=C(O)[C@]3(O)C(=O)C(C(N)=O)=C(O)[C@@H](N(C)C)[C@@H]3[C@@H](O)[C@@H]21 [Dox, doxycycline]
- apoptosis of normal hematopoietic stem cells and progenitor cells in the bone marrow: not affected
- ratios of normal hematopoietic stem cells and progenitor cells in the bone marrow: not affected
